The source of these data is patent publication EP2436673A1 (Niaraki, Anna, priority 2010, dated 2012).

Molecules are shown by their SMILES.

In experiment [1] the target is T1, Aβ1-42 monomers (Homo sapiens, UniProt P05067).
T1 construct: The native Aβ1-42 peptide was then obtained from the depsi peptide; made in house; host or cells: chemical peptide synthesis (depsi-peptide, then pH switch)
As to the kind of experiment: Surface Plasmon Resonance (SPR) binding to immobilized Aβ1-42 monomers. How it is done: (§1) For these studies we used the ProteOn XPR36 (Biorad) apparatus, which has six parallel flow channels that can be used to uniformly immobilize strips of six "ligands" on the sensor surface. Aβ1-42 "monomers" or fibrils were immobilized in two of these parallel-flow channels of a GLC sensor chip (Biorad) using amine-coupling chemistry. Briefly, after surface activation the peptide solutions (10 µM in acetate buffer pH 4.0) were injected for 5 min at a flow rate of […], and the remaining activated groups were blocked with ethanolamine, pH 8.0. Bovine serum albumin (BSA) was also immobilized in another parallel flow channel, as a reference protein. […] A fourth surface was prepared using the same immobilization procedure but without addition of the peptide ("empty", reference surface).
(§2) The fluidic system of Proteon XPR36 can automatically rotate 90° so that up to six different "analytes" (e.g. different liposomes prepations, or different concentrations of the same preparation) could be injected simultaneously over all the different immobilized molecules.
(§3) ProteOn analysis software (BioRad) was used for the fitting of sensorgrams, to obtain the association and dissociation rate constants of the binding (Kon and Koff) and the corresponding KD value. The simplest 1:1 interaction model (Langmuir model) is used at first.

Experiment [2] has as its target T2, Aβ1-42 fibrils (Homo sapiens, UniProt P05067).
T2 construct: made in house; host or cells: chemical peptide synthesis (depsi-peptide, pH switch, then acid incubation to fibrils)
As to the kind of experiment: Surface Plasmon Resonance (SPR) binding to immobilized Aβ1-42 fibrils. Here is the method: To prepare Aβ1-42 fibrils, the switched peptide solution was diluted with water to 100 µM, acidified to pH 2.0 with 1 M HCl, and left to incubate for 24 hrs at 37 °C [56].
as §1, §2, §3

Experiment [3] relates to Aβ aggregation. The settings on record: reported in literature; cited from earlier work.
Where [4] appears, read: SPR, liposomes 18 at 300 nM exposed curcumin-derivative, plain liposomes at 1360 nM.
[5] abbreviates: additional, fibril-specific binding component, two-sites model.

As usually defined, the Kd is the constant that tells how readily two partners part at equilibrium. By koff is commonly meant the first-order rate constant of dissociation. Higher therefore signals a short-lived complex. The kon is a measure of how fast the partners come together. Low values mean slower complex formation, high ones faster complex formation.

T2 sequence (P05067 672-713 limits assumed): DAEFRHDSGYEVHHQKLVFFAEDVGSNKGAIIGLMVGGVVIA
T1 sequence (P05067 672-713 limits assumed): as above

Turning to `Nc1c(/N=N/c2ccc(-c3ccc(/N=N/c4cc(S(=O)(=O)O)c5ccccc5c4N)cc3)cc2)cc(S(=O)(=O)O)c2ccccc12` [Congo-Red, reference compound], in experiment [1] (setting [4]), the “binding to Aβ1-42 monomers (in words)” value is listed as “only bound to Aβ fibrils but not "monomers"”. In addition, the “binding to Aβ1-42 fibrils (in words)” value in experiment [2] (setting [4]) is “only bound to Aβ fibrils”.

Take `COc1cc(/C=C/c2cc(/C=C/c3ccc(O)c(OC)c3)n(CC(=O)NCc3cn(CCOCCOCCO)nn3)n2)ccc1O` [TREG, 2-(3,5-bis((E)-4-hydroxy-3-methoxystyryl)-1H-pyrazol-1-yl)-N-((1-(2-(2-(2-hydroxyethoxy)ethoxy)ethyl)-1H-1,2,3-triazol-4-yl)methyl)acetamide]: the dissociation constant Kd in experiment [1] (Aβ1-42 monomers, rough estimate from Kon and Koff after global fitting, one-site model) is 23 µM. In experiment [2] (setting [5]), this compound returned a Kd of 7 µM, a koff of 0.001 s⁻¹ and a kon of 163 M⁻¹ s⁻¹.

Consider `COc1cc(/C=C/C(=O)CC(=O)/C=C/c2ccc(O)c(OC)c2)ccc1O` [curcumin, Curcumin], for which the “inhibition of Aβ aggregation (in words)” value in experiment [3] was “inhibits Aβ aggregation in the low µM range”.
